Reference: the supplement of paper PMC4314810
± gives the standard deviation of the averaged measurements.

Tested on: MCF7
Assay: HRG-induced Akt activation (dPAkt = log2 pAkt/Akt HRG-stimulated minus log2 pAkt/Akt basal) (log2 ratio difference); higher = stronger HRG-induced Akt(T308) phosphorylation
Conditions: miRNA mimic concentration 10 nM; time after transfection 72 h; heregulin 10 ng/ml; stimulation time 1 h
Outline: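 MCF7 cells ([…], 96-well plates) carrying one of 879 miRNA mimics, transfected at 10 nM final with Lipofectamine RNAiMax in two biological replicates, were stimulated after 72 h with 10 ng/ml heregulin-beta1 for 1 h or left unstimulated. Phospho-Akt(T308) and total Akt in cells fixed with 4% PFA were read by In-Cell Western on an Odyssey and corrected for column-wise fixation decay to give log2(pAkt/Akt). Heregulin-induced Akt activation is the replicate mean of stimulated minus unstimulated ratios.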

Sequence | HRG-induced Akt activation (log2)
UCUUGUGUUCUCUAGAUCAGU | 1.53 ± 0.22
CAAAGUGCUGUUCGUGCAGGUAG | 1.46 ± 0.35
AUGGUACCCUGGCAUACUGAGU | 1.62 ± 0.59
CCUCUUCCCCUUGUCUCUCCAG | 1.52 ± 0.031
UGUGCGCAGGGAGACCUCUCCC | 0.835 ± 0.095
AAGACGGGAGGAAAGAAGGGAG | 1.22 ± 0.24
GAAGUUGUUCGUGGUGGAUUCG | 2.11 ± 0.022
UGUAACAGCAACUCCAUGUGGA | 0.984 ± 0.7
UGUGACAGAUUGAUAACUGAAA | 1.84 ± 0.056
AGGCAAGAUGCUGGCAUAGCU | 1.18 ± 0.13
ACAGUAGAGGGAGGAAUCGCAG | 1.42 ± 0.22
AAAAGCUGGGUUGAGAGGGCAA | 1.61 ± 0.092
UGGGUGGUCUGGAGAUUUGUGC | 1.58 ± 0.13
CAUGCCUUGAGUGUAGGACCGU | 1.16 ± 0.11
CCAGUGGGGCUGCUGUUAUCUG | 1.78 ± 0.29
ACUUUAACAUGGAAGUGCUUUC | 1.17 ± 0.09
CAAGUCACUAGUGGUUCCGUU | 1.49 ± 0.5
AGAGGUUGCCCUUGGUGAAUUC | 1.6 ± 0.19
CCCAGUGUUUAGACUAUCUGUUC | 1.58 ± 0.18
UGAGACCUCUGGGUUCUGAGCU | 1.95 ± 0.023
AGGCGGAGACUUGGGCAAUUG | 2.43 ± 0.29
AGGGCUUAGCUGCUUGUGAGCA | 1.75 ± 0.56
GUUGUGUCAGUUUAUCAAAC | 1.54 ± 0.089
UAAGGCACGCGGUGAAUGCC | 1.15 ± 0.41

Sequence | HRG-induced Akt activation (log2)
AUGUAGGGCUAAAAGCCAUGGG | 1.01 ± 0.24
GUUCAAAUCCAGAUCUAUAAC | 1.08 ± 0.18
AGGCAUUGACUUCUCACUAGCU | 1.66 ± 0.32
UAUGUCUGCUGACCAUCACCUU | 2.316 ± 0.0055
AGUUUUGCAGGUUUGCAUUUCA | 1.13 ± 0.15
AAUGGAUUUUUGGAGCAGG | 2.12 ± 0.2
UUUGUUCGUUCGGCUCGCGUGA | 1.23 ± 0.27
UUGCUCACUGUUCUUCCCUAG | 0.86933 ± 0.00015
AACAUUCAUUGCUGUCGGUGGGU | 1.77 ± 0.45
UCCCUGAGACCCUAACUUGUGA | 1.35 ± 0.79
AAAGGAUUCUGCUGUCGGUCCCACU | 1.63 ± 0.2
UUUCAAGCCAGGGGGCGUUUUUC | 0.989 ± 0.21
GUGUGCGGAAAUGCUUCUGCUA | 1.18 ± 0.2
CCUAUUCUUGAUUACUUGUUUC | 1.273 ± 0.0028
AGGCGGGGCGCCGCGGGACCGC | 1.22 ± 0.12
CAAAACUGGCAAUUACUUUUGC | 1.5 ± 0.052
AGCUGUCUGAAAAUGUCUU | 1.08 ± 0.3
CAAGCUUGUAUCUAUAGGUAUG | 1.59 ± 0.17
AGGUUGACAUACGUUUCCC | 1.43 ± 0.13
CUGGUUUCACAUGGUGGCUUAG | 2.33 ± 0.15
CCUGUUGAAGUGUAAUCCCCA | 1.21 ± 0.058
UUCAAGUAAUUCAGGUG | 1.22 ± 0.15
CGGCUCUGGGUCUGUGGGGA | 1.13 ± 0.17
AGACUUCCCAUUUGAAGGUGGC | 1.52 ± 0.18

Sequence | HRG-induced Akt activation (log2)
CAAAACGUGAGGCGCUGCUAU | 1.27 ± 0.087
CUGUGCGUGUGACAGCGGCUGA | 0.692 ± 0.043
AAAAGUGCUUACAGUGCAGGUAG | 1.2 ± 0.069
CGGGCGUGGUGGUGGGGG | 1.56 ± 0.11
UUUAGGAUAAGCUUGACUUUUG | 1.37 ± 0.39
GACACGGGCGACAGCUGCGGCCC | 1.03 ± 0.89
UACGUCAUCGUUGUCAUCGUCA | 1.21 ± 0.51
CUAUACAAUCUACUGUCUUUC | 1.11 ± 0.051
UGGGUUUACGUUGGGAGAACU | 1.44 ± 0.096
CAGUUAUCACAGUGCUGAUGCU | 1.66 ± 0.42
GCUGGGCAGGGCUUCUGAGCUCCUU | 1.68 ± 0.082
UGGUGGUUUACAAAGUAAUUCA | 1.29 ± 0.11
UAAGUGCUUCCAUGUUUUGGUGA | 0.743 ± 0.38
CCCGGAGCCAGGAUGCAGCUC | 1.79 ± 0.39
UAUUGCACUUGUCCCGGCCUGU | 1.3 ± 0.12
CGGGGCAGCUCAGUACAGGAU | 0.9798 ± 0.0068
AAGUUCUGUUAUACACUCAGGC | 1.154 ± 0.01
CUCAGUAGCCAGUGUAGAUCCU | 1.53 ± 0.16
CUGAAGCUCAGAGGGCUCUGAU | 1.38 ± 0.13
ACAGCAGGCACAGACAGGCAGU | 1.75 ± 0.28
CGCAUCCCCUAGGGCAUUGGUGU | 2.62 ± 0.28
UAGGUUAUCCGUGUUGCCUUCG | 1.17 ± 0.16
